For experiment [1], the target named is furin (Homo sapiens, UniProt P09958). Kind of experiment: Vero/furin cell-based furin enzyme inhibitory assay. Particulars: for furin inhibitory activity: Vero/furin cells, up to a concentration of 40.0 μM.
Experiment [2] concerns the target TMPRSS2 (Homo sapiens, UniProt O15393). Kind of experiment: VeroE6/TMPRSS2 cell-based TMPRSS2 enzyme inhibitory assay. Particulars: VeroE6/TMPRSS2 cells; up to a concentration of 4.0 μM.
In experiment [3] the test system is TMPRSS2 in LNCaP cells. Also on record: species or system human. The following applies: read-out: IC50, LNCaP cell-based proteolytic enzyme inhibition.

furin, sequence (P09958 108-794): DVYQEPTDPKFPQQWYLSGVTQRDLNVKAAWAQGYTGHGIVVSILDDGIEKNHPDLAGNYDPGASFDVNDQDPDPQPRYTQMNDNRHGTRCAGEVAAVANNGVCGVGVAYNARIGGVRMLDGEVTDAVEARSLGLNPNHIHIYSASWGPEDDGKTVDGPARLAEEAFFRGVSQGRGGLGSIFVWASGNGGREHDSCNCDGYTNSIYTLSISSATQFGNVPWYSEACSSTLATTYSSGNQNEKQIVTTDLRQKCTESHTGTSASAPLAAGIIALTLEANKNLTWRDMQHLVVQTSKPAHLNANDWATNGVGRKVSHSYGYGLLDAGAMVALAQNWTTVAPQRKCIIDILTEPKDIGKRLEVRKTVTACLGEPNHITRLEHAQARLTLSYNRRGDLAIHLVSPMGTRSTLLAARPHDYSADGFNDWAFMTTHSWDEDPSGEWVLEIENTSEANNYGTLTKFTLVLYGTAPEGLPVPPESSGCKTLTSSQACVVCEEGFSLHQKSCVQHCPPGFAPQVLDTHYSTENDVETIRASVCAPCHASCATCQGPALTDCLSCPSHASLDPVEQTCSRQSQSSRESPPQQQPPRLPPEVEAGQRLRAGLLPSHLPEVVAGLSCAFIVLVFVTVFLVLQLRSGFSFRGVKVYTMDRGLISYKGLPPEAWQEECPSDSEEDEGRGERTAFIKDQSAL
TMPRSS2, sequence (O15393 whole entry): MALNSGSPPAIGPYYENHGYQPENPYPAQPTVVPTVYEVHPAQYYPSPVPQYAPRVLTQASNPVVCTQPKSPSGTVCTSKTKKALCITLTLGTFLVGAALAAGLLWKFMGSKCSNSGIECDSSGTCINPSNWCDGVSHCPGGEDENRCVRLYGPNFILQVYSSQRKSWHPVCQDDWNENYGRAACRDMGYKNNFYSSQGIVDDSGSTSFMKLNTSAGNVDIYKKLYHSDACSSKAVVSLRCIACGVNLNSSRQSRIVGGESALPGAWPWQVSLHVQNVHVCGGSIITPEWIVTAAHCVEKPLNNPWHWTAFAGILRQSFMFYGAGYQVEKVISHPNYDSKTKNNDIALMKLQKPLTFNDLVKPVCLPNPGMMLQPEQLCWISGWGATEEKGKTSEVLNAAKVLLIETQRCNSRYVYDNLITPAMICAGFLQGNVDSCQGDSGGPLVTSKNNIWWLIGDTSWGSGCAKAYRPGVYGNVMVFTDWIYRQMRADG

Take `N=C(N)c1ccc2cc(OC(=O)c3ccc(N=C(N)N)cc3)ccc2c1` [nafamostat]: the furin inhibitory activity entry in experiment [1] is “inactive”.

Turning to `CN(Cc1cc(Br)cc(Br)c1N)C1CCCCC1` [Bromhexine, bromhexine], the TMPRSS2 inhibitory activity result in experiment [2] was “inactive”.

`CN(C)C(=O)COC(=O)Cc1ccc(OC(=O)c2ccc(NC(=N)N)cc2)cc1` [camostat]: the furin inhibitory activity entry in experiment [1] was “inactive”. Moreover, the IC50 in experiment [3] stood at 0.026 ± 0.03 µM.

On to `N=C(N)c1ccc(/N=N/Nc2ccc(C(=N)N)cc2)cc1` [diminazene], for which the IC50 in experiment [1] turned out to be 13.2 µM.

The IC50 is the midpoint of a concentration-inhibition curve.

Values taken from article PMC8920474 (Current Research in Chemical Biology, 2022).
